Like-named read-outs stand apart in the source and are kept apart here.
What was measured:
Assay in all cases: CellTiter Glo cell viability assay
Bladder 5637 = type: cell-based, human; conditions: for IC50: Homo sapiens
How it was run: (§1)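 Cells seeded at 1.7*10^3/well in quadruplicate; compounds at 18 two-fold dilutions from 5 μM (0.000038146-5 μM), or at 1, 2, 5, 10 and 20 μM. CellTiter Glo luminescence read on days 1, 3 and 5 after treatment. IC50 by nonlinear regression of luminescence versus log dose.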

Bladder SW780 = type: cell-based, human; conditions: for IC50: Homo sapiens, SW780, 72 h, 3 Days of treatment, 18 2-fold dilutions 5-0.00003 μM
How it was run: as §1

Colon HCT_116 = type: cell-based, human; conditions: for IC50: Homo sapiens
How it was run: as §1

[1] = tested on: Connective Tissue Sarcoma TE 381.T; type: cell-based, human; conditions: for IC50: Homo sapiens, TE 381.T, 72 h, 3 Days of treatment, 18 2-fold dilutions 5-0.00003 μM
How it was run: as §1

Leiomyosarcoma SK-LMS-1 = type: cell-based, human; conditions: for IC50: Homo sapiens, SK-LMS-1, 72 h, 3 Days of treatment, 18 2-fold dilutions 5-0.00003 μM
How it was run: as §1

Leiomyosarcoma SK-UT-1B = type: cell-based, human; conditions: for IC50: Homo sapiens, Skut1B, 72 h, 3 Days of treatment, 18 2-fold dilutions 5-0.00003 μM
How it was run: as §1

Liposarcoma 94T778 = type: cell-based, human; conditions: for IC50: Homo sapiens, 72 h, 3 Days of treatment, 18 2-fold dilutions 5-0.00003 μM
How it was run: as §1

Liver Huh7 = type: cell-based, human; conditions: for IC50: Homo sapiens, Huh-7, 72 h, 3 Days of treatment, 18 2-fold dilutions 5-0.00003 μM
How it was run: as §1

Liver JHH-6 = type: cell-based, human; conditions: for IC50: Homo sapiens, 72 h, 3 Days of treatment, 18 2-fold dilutions 5-0.00003 μM
How it was run: as §1

Lung NCI-H1048 = type: cell-based, human; conditions: for IC50: Homo sapiens, NCI-H1048, 72 h, 3 Days of treatment, 18 2-fold dilutions 5-0.00003 μM
How it was run: as §1

Lung NCI-H1299 = type: cell-based, human; conditions: for IC50: Homo sapiens, NCI-H1299, 72 h, 18 2-fold dilutions 5-0.00003 μM
How it was run: as §1

Lung NCI-H596 = type: cell-based, human; conditions: for IC50: Homo sapiens, NCI-H596, 72 h, 3 Days of treatment, 18 2-fold dilutions 5-0.00003 μM
How it was run: as §1

[2] = tested on: Osteosarcomas HOS_CRL_1543; type: cell-based, human; conditions: for IC50: Homo sapiens, 72 h, 3 Days of treatment, 18 2-fold dilutions 5-0.00003 μM
How it was run: as §1

Osteosarcomas KHOS_312H = type: cell-based, human; conditions: for IC50: Homo sapiens, 72 h, 3 Days of treatment, 18 2-fold dilutions 5-0.00003 μM
How it was run: as §1

Osteosarcomas KHOS_N/P = type: cell-based, human; conditions: for IC50: Homo sapiens, KHOS/NP, 72 h, 3 Days of treatment, 18 2-fold dilutions 5-0.00003 μM
How it was run: as §1

Osteosarcomas U2OS = type: cell-based, human; conditions: for IC50: Homo sapiens, U2OS, 72 h, 3 Days of treatment, 18 2-fold dilutions 5-0.00003 μM
How it was run: as §1

Pancreatic CAPAN-1 = type: cell-based, human; conditions: for IC50: Homo sapiens, CAPAN-1, 72 h, 18 2-fold dilutions 5-0.00003 μM
How it was run: as §1

Pancreatic CAPAN-2 = type: cell-based, human; conditions: for IC50: Homo sapiens, Capan-2, 72 h, 3 Days of treatment, 18 2-fold dilutions 5-0.00003 μM
How it was run: as §1

Pancreatic CFPAC = type: cell-based, human; conditions: for IC50: Homo sapiens, 72 h, 3 Days of treatment, 18 2-fold dilutions 5-0.00003 μM
How it was run: as §1

Pancreatic HPAC = type: cell-based, human; conditions: for IC50: Homo sapiens, HPAC, 72 h, 3 Days of treatment, 18 2-fold dilutions 5-0.00003 μM
How it was run: as §1

Rhabomyosarcoma CCL 166 = type: cell-based, human; conditions: for IC50: Homo sapiens, 72 h, 3 Days of treatment, 18 2-fold dilutions 5-0.00003 μM
How it was run: as §1

Tongue SCC-25 = type: cell-based, human; conditions: for IC50: Homo sapiens, SCC-25, 72 h, 3 Days of treatment, 18 2-fold dilutions 5-0.00003 μM
How it was run: as §1

Breast 4T1 = type: cell-based; conditions: Table 5B: 11 dilutions 3-0.00001 μM; Exp N
Method: 1.7*10^3 cells/well were seeded in quadruplicates in 96-well plate after plating. Drugs were added at 5 μM and 2-fold dilutions over 18 concentrations (0.000038146-5 […] range) to generate a dose-response curve. Cell growth was assessed on day 1, 3 and 5 after drug treatments using the CellTiter Glo Luminescence Cell Viability Assay (Promega) according to manufacturer's protocol. Thermo Scientific Varioskan LUX Multimode Microplate instrument was used for plate reading. Data are expressed as mean luminescence (arbitrary units) ±S.D.
Cell Viability Assays were employed to determine the concentration of Compound 1 (KYN-001) and analogues where the response is reduced by half. For each treatment of cancer cells, 1, 2, 5, 10 and 20 μM solutions of compounds were applied. GraphPad Prism 7 software was used to fit dose response curves. Relative Luminescence Units were plotted against the log values of the doses used and the nonlinear regression model was used for data analysis.

[3] = 72 h, 3 Days of treatment, 18 2-fold dilutions 5-0.00003 μM, read-out: Average IC50
[4] = 120 h, Day 5 upon drug treatment, 10 dosages 0.0001-20 μM (Compound 8: 18 dosages 0.000038146 to 5 μM), read-out: IC50
[5] = HCT-116, 72 h, 3 Days of treatment, 18 2-fold dilutions 5-0.00003 μM, read-out: Average IC50
[6] = HCT-116, 120 h, Day 5 upon drug treatment, 10 dosages 0.0001-20 μM (Compound 8: 18 dosages 0.000038146 to 5 μM), read-out: IC50
[7] = 3 Days of treatment, read-out: Average IC50
[8] = Table 4: 3 Days of treatment, Average (1, 8) or single Exp A-D, read-out: IC50
[9] = IC50 of 1 [KYN-001] vs 8 [KYN-119], 3 Days

## COc1cc(/C=C/c2cc(O)cc(OC)c2CC=C(C)C)ccc1O [Compound 1, (E)-3-(4-hydroxy-3-methoxystyryl)-5-methoxy-4-(3-methylbut-2-en-1-yl)phenol]
Bladder 5637; [3]
  IC50: 34.7 nM
Bladder 5637; [4]
  IC50: 30.6 nM
Bladder SW780
  IC50: 712 nM
Colon HCT_116; [5]
  IC50: 416 nM
Colon HCT_116; [6]
  IC50: 165 nM
[1]
  IC50: 35.7 nM
Leiomyosarcoma SK-LMS-1
  IC50: 65.9 nM
Leiomyosarcoma SK-UT-1B
  IC50: 22.6 nM
Liposarcoma 94T778
  IC50: 84.5 nM
Liver Huh7
  IC50: 78.9 nM
Liver JHH-6
  IC50: 172 nM
Lung NCI-H1048
  IC50: 91.7 nM
Lung NCI-H1299; [7]
  IC50: 62.4 nM
Lung NCI-H1299; [8]
  IC50: 64.2 nM
Lung NCI-H596
  IC50: 303 nM
[2]
  IC50: 358 nM
Osteosarcomas KHOS_312H
  IC50: 356 nM
Osteosarcomas KHOS_N/P
  IC50: 68.7 nM
Osteosarcomas U2OS
  IC50: 325 nM
Pancreatic CAPAN-1; [7]
  IC50: 6220 nM
Pancreatic CAPAN-1; [8]
  IC50: 1460 nM
Pancreatic CAPAN-2
  IC50: 182 nM
Pancreatic CFPAC
  IC50: 492 nM
Pancreatic HPAC
  IC50: 4990 nM
Rhabomyosarcoma CCL 166
  IC50: 96 nM
Tongue SCC-25
  IC50: 744 nM
Breast 4T1
  IC50: 117 nM

## CCOc1cc(O)cc(/C=C/c2ccc(O)c(OC)c2)c1CC=C(C)C [Compound 8, (E)-3-Ethoxy-5-(4-hydroxy-3-methoxystyryl)-4-(3-methylbut-2-en-1-yl)phenol]
Bladder 5637; [3]
  IC50: 3.91 nM
Bladder 5637; [4]
  IC50: ~9.43 nM
Bladder 5637; [9]
  Fold IC50: 8.9
Bladder SW780
  IC50: 217 nM
Bladder SW780; [9]
  Fold IC50: 3.3
Colon HCT_116; [5]
  IC50: 35.5 nM
Colon HCT_116; [6]
  IC50: 28 nM
Colon HCT_116; [9]
  Fold IC50: 12
[1]
  IC50: 7.5 nM
[1]; [9]
  Fold IC50: 4.8
Leiomyosarcoma SK-LMS-1
  IC50: 17.5 nM
Leiomyosarcoma SK-LMS-1; [9]
  Fold IC50: 3.8
Leiomyosarcoma SK-UT-1B
  IC50: 6.39 nM
Leiomyosarcoma SK-UT-1B; [9]
  Fold IC50: 3.5
Liposarcoma 94T778
  IC50: 25.7 nM
Liposarcoma 94T778; [9]
  Fold IC50: 3.3
Liver Huh7
  IC50: 20.6 nM
Liver Huh7; [9]
  Fold IC50: 3.8
Liver JHH-6
  IC50: 36.4 nM
Liver JHH-6; [9]
  Fold IC50: 4.7
Lung NCI-H1048
  IC50: 14.5 nM
Lung NCI-H1048; [9]
  Fold IC50: 6.3
Lung NCI-H1299; [7]
  IC50: 8.56 nM
Lung NCI-H1299; [8]
  IC50: 8.56 nM
Lung NCI-H1299; [9]
  Fold IC50: 7.3
Lung NCI-H596
  IC50: 115 nM
Lung NCI-H596; [9]
  Fold IC50: 2.6
[2]
  IC50: 32 nM
[2]; [9]
  Fold IC50: 11
Osteosarcomas KHOS_312H
  IC50: 36.7 nM
Osteosarcomas KHOS_312H; [9]
  Fold IC50: 9.7
Osteosarcomas KHOS_N/P
  IC50: 10.5 nM
Osteosarcomas KHOS_N/P; [9]
  Fold IC50: 6.6
Osteosarcomas U2OS
  IC50: 36.8 nM
Osteosarcomas U2OS; [9]
  Fold IC50: 8.8
Pancreatic CAPAN-1; [7]
  IC50: 4690 nM
Pancreatic CAPAN-1; [8]
  IC50: 2450 nM
Pancreatic CAPAN-1; [9]
  Fold IC50: 1.3
Pancreatic CAPAN-2
  IC50: 9.75 nM
Pancreatic CAPAN-2; [9]
  Fold IC50: 19
Pancreatic CFPAC
  IC50: 82.4 nM
Pancreatic CFPAC; [9]
  Fold IC50: 6.0
Pancreatic HPAC
  IC50: 1970 nM
Pancreatic HPAC; [9]
  Fold IC50: 2.5
Rhabomyosarcoma CCL 166
  IC50: 6.05 nM
Rhabomyosarcoma CCL 166; [9]
  Fold IC50: 16
Tongue SCC-25
  IC50: 276 nM
Tongue SCC-25; [9]
  Fold IC50: 2.7

## COc1cc(/C=C/c2cc(O)cc(OC)c2CC=C(C)C)ccc1NC=O [Compound 27, (E)-N-(4-(5-hydroxy-3-methoxy-2-(3-methylbut-2-en-1-yl)styryl)-2-methoxyphenyl)formamide]
Breast 4T1
  IC50: 29.2 nM
